Measurements reported in patent publication US20250177566A1, “USE OF CHEMICAL EPIGENETIC MODIFIERS TO MODULATE GENE EXPRESSION” (The University of North Carolina at Chapel Hill, priority 2022, published 2025).

How the values were obtained:
[1] = tested on: AAV transgene expression (firefly luciferase); assay: AAV regulation with first generation CEM, dual luciferase assay, HEK293T Renilla; type: cell-based, human; settings: FIG. 12, 50, 200, 500, 1000 nM
Source text: It was investigated whether rAAV transgene expression can be epigenetically controlled. Rapid screening of CEM technology can be performed with dual liucierase assays. (FIG. 10). Briefly, a cell line can be stably transduced with Ef1a-Renilla, enabling normalization to cell number. The cells are then either infected with AAV or tranfected with plasmid and dosed with a chemical epigenetic modifier. Luminescence can then be measured with the Dual Lucieferase Reporter, commercially available from Promega. This approach is described in more detail in the methods section of the example. Gene activation can be described as normalized luciferase or fold change. A measure of total gene expression can be calculated by
Preliminary regulation of AAV with first generation CEMs is depicted in FIG. 11A. The prototype system is autogenous, saving casssette space. (FIG. 11B). […] Preliminary regulation of AAV with first generation CEMs in HEK293T Renilla cells using the cassette in FIG. 11B results are shown in FIG. 13, with multiplicity of infection (MOI)=number of viral genomes/cell.

[2] = molecular target: T1, BRD4 (Homo sapiens, UniProt O60885+P62942); assay: BRD4 ChIP-qPCR near the CXCR4 transcription start site, HCT116; type: cell-based; settings: FIG. 8, 25 nM, 24 hrs
T1 construct: achieved via the accumulation of endogenous epigenetic machinery at the designed gRNA targeted gene locus; endogenous in cells; host or cells: HCT116 cells stably expressing dCas9 and MS2-FKBP*x2, transfected with CXCR4 or NT gRNA
Method: FIGS. 8A-8B show alamarBlue cell viability assays. HEK293T or HCT116 cells were plated in 96-well plates 24 hrs before chemical treatment of 0.001, 0.01, 0.1, 1, 10, 50, and 100 μM CEM207 was added. Another group of cells were treated with all concentrations of CEM207 mentioned above along with 200 nM CEM87 in all samples. After 4 days of chemical exposure, cell growth was measured by fluorescence. […] HCT116 cells were stably infected with dCas9 and MS2-FKBP*x2 constructs and transfected with CXCR4 gRNA. After 24 hrs of 25 nM CEM207 treatment, ChIP-qPCR was performed at different base pair distances from the transcription start site of CXCR4 gene. […] Error bars represent the standard deviation.
Given that SLF*-CEMa facilitates gene activation via recruitment of BET proteins including BRD4, BRD4 enrichment at a specific targeted gene locus was investigated to further validate the mechanism of CEM207. Based on the alamarBlue cell viability assay performed with HEK293T and HCT116 cells, CEM207 can have different toxicity effects on different cell lines after 4 days of exposure. […] The signal change was measured between samples when only CEM207 or gRNA are present and those where both are present. […] To determine outlier significance, a “z-score” distribution was calculated by taking the scaled means of the x- and y-axis values and calculated P values for each point within this distribution. […]

T1 sequence (P62942 2-108 limits assumed, other chains not shown): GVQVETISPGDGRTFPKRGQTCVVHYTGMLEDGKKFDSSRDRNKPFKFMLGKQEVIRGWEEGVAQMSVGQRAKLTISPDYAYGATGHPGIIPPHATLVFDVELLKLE

| Compound | luminescence, fold change compared to no treatment [1] | fold change, BRD4 ChIP-qPCR (CXCR4 gRNA vs NT gRNA) ([2]; +40 bp from CXCR4 TSS) | fold change, BRD4 ChIP-qPCR (CXCR4 gRNA vs NT gRNA) ([2]; +300 bp from CXCR4 TSS) |
| --- | --- | --- | --- |
| COc1ccc2c(c1)C(c1ccc(Cl)cc1)=N[C@@H](CC(=O)NCc1cn(CCOCCOCCOCCNC(=O)CCSCCC[C@@H]3/C=C(\C)C[C@H](C)C[C@H](OC)[C@H]4O[C@@](O)(C(=O)C(=O)N5CCCC[C@H]5C(=O)O[C@H](/C(C)=C/[C@@H]5CC[C@@H](O)[C@H](OC)C5)[C@H](C)[C@@H](O)CC3=O)[C@H](C)C[C@@H]4OC)nn1)c1nnc(C)n1-2 [CEM87, reference compound] | dose dependent increase in luminscence | – | – |
| CC[C@H](C(=O)N1CCCC[C@H]1C(=O)O[C@H](CCc1ccc(OC)c(OC)c1)c1cccc(OCC(=O)NCCOCCOCCNC(=O)C[C@@H]2N=C(c3ccc(Cl)cc3)c3c(sc(C)c3C)-n3c(C)nnc32)c1)c1cc(OC)c(OC)c(OC)c1 [CEM207, (R)-1-(3-((14-((S)-4-(4-Chlorophenyl)-2,3,9-trimethyl-6H-thieno[3,2-f][1,2,4]triazolo[4,3-a][1,4]diazepin-6-yl)-2,13-dioxo-6,9-dioxa-3,12-diazatetradecyl)oxy)phenyl)-3-(3,4-dimethoxyphenyl) propyl(S)-1-((S)-2-(3,4,5-trimethoxyphenyl)butanoyl) piperidine-2-carboxylate] | – | 2.7 fold | 1.2 fold |
